Laboratory results from ChEMBL document CHEMBL1154879, “Discovery of (thienopyrimidin-2-yl)aminopyrimidines as potent, selective, and orally available pan-PI3-kinase and dual pan-PI3-kinase/mTOR inhibitors for the treatment of cancer” (J Med Chem, 2010).
Calls of active or inactive are those of the source. The calls are words filed in the database; no cut-off is given here.

How the values were obtained:
[1] = target: Phosphatidylinositol 4-phosphate 3-kinase C2 domain-containing subunit alpha (Homo sapiens) (UniProt O00443); assay: Inhibition of PIK3C2alpha at 1 uM
[2] = target: Phosphatidylinositol 4-phosphate 3-kinase C2 domain-containing subunit beta (Homo sapiens) (UniProt O00750); assay: Inhibition of PIK3C2beta at 1 uM
Chain of Phosphatidylinositol 4-phosphate 3-kinase C2 domain-containing subunit beta (Homo sapiens) (O00750 whole entry, the tested form may be a part): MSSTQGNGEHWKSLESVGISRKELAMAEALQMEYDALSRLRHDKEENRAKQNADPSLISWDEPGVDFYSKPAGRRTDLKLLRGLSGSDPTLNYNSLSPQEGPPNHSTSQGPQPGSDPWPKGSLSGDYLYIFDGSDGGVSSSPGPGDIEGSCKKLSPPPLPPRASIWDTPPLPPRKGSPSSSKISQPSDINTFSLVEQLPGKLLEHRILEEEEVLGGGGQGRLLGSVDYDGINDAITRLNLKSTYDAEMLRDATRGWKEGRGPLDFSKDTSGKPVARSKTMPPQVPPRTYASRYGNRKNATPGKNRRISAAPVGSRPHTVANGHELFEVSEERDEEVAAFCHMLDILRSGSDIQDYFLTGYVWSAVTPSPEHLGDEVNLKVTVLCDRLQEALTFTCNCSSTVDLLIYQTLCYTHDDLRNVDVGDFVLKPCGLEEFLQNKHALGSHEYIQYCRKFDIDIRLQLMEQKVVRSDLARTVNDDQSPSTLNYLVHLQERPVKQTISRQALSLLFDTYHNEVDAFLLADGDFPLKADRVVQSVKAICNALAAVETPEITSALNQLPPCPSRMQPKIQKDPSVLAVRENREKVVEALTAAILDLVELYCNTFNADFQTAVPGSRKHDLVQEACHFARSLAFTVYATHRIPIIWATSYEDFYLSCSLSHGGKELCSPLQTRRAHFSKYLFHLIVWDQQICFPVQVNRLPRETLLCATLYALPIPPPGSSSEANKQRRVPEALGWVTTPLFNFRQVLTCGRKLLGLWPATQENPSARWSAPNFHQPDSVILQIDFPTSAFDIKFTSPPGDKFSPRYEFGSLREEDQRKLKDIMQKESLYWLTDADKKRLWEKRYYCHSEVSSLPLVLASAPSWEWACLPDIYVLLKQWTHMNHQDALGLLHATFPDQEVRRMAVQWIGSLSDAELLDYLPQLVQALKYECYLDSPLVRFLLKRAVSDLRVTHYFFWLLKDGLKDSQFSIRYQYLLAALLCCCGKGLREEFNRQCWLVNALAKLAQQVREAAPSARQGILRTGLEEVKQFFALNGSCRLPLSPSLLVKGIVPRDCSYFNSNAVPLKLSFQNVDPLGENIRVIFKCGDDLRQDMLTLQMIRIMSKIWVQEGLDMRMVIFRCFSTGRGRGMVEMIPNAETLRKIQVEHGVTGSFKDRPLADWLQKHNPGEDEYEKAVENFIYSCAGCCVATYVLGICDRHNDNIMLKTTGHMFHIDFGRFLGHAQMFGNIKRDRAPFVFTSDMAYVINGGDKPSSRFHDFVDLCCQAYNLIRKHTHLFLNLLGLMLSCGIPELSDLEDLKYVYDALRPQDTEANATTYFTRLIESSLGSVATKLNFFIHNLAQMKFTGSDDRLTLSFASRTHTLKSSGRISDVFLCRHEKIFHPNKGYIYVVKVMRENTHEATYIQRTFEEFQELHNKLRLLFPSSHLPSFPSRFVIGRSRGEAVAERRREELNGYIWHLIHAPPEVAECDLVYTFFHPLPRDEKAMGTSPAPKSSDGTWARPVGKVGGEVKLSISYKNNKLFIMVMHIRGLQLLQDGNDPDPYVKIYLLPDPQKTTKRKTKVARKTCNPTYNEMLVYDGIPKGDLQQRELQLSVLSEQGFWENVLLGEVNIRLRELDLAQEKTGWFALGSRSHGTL

[3] = target: Phosphatidylinositol 3-kinase catalytic subunit type 3 (Homo sapiens) (UniProt Q8NEB9); assay: Inhibition of VPS34 at 1 uM
Chain of Phosphatidylinositol 3-kinase catalytic subunit type 3 (Homo sapiens) (Q8NEB9 whole entry): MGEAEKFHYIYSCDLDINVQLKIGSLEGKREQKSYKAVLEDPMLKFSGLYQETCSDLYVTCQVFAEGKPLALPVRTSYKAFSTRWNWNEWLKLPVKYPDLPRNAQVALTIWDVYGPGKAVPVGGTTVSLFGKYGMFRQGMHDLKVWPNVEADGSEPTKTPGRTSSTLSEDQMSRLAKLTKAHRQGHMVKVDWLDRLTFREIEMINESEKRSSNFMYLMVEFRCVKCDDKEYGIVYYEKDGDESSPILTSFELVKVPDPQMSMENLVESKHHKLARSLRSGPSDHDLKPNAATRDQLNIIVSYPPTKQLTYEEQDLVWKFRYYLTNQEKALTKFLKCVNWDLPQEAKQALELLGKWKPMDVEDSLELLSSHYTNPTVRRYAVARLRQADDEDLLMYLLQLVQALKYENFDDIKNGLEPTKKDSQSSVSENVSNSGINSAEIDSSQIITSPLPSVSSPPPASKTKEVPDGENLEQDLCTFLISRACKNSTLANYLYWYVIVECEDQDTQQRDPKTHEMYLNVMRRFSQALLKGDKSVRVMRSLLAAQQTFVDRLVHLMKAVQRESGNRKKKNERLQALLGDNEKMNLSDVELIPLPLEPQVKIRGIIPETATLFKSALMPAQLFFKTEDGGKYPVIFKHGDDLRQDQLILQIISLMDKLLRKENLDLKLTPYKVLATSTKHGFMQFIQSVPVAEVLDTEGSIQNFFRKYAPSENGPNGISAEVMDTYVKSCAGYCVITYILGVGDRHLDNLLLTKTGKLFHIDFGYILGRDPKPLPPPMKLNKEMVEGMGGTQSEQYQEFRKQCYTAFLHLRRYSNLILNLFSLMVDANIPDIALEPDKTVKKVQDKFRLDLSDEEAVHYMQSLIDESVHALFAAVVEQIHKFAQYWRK

[4] = target: Phosphatidylinositol 4-kinase beta (Homo sapiens) (UniProt Q9UBF8); assay: Inhibition of PI4Kbeta at 1 uM
Chain of Phosphatidylinositol 4-kinase beta (Homo sapiens) (Q9UBF8 2-816 limits assumed): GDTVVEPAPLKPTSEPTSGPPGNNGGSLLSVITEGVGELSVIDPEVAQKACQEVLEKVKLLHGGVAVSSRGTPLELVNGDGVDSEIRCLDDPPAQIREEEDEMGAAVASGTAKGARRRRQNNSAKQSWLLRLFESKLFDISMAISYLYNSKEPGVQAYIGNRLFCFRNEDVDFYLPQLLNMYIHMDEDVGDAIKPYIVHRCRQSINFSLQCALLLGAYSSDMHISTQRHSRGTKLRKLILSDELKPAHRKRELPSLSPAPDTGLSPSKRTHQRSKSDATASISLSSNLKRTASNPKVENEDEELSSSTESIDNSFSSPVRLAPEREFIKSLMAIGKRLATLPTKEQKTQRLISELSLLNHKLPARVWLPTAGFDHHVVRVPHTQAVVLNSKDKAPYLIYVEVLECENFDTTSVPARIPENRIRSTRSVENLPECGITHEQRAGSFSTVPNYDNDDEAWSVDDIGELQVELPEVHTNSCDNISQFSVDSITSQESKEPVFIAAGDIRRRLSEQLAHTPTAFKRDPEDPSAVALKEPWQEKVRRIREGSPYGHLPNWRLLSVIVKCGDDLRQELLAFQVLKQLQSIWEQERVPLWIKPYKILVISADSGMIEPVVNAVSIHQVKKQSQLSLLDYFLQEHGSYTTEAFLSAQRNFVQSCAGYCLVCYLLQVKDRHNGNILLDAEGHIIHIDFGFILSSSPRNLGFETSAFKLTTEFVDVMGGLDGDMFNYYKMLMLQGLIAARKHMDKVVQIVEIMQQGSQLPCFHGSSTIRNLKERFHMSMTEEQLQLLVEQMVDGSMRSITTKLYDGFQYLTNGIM

PC-3 [5] = assay: Antitumor activity against human PC3 cells xenografted in nu/nu mouse assessed as inhibition of tumor growth at 10 mg/kg, po qd for 14 days; assay type: functional; details: PC-3, 336 h, read-out: TGI
PC-3 [6] = assay: Antitumor activity against human PC3 cells xenografted in nu/nu mouse assessed as inhibition of tumor growth at 1 mg/kg, po qd for 14 days; assay type: functional, organism-based; set-up: dose 1 mg/kg
Mus musculus [7] = assay: Inhibition of PI3K/Akt/mTOR pathway signaling in PI3Kalpha mutant expressing human MCF7.1 cells xenografted nu/nu mouse assessed as inhibition of Akt Ser473 phosphorylation at 10 mg/kg, po qd for 21 days measured 1 hr after last administered dose on day 21 by electrochemiluminescence assay; assay type: functional
Mus musculus [8] = assay: Inhibition of PI3K/Akt/mTOR pathway signaling in PI3Kalpha mutant expressing human MCF7.1 cells xenografted nu/nu mouse assessed as inhibition of Akt Ser473 phosphorylation at 10 mg/kg, po qd for 21 days measured 4 hrs after last administered dose on day 21 by electrochemiluminescence assay; assay type: functional
Mus musculus [9] = assay: Inhibition of PI3K/Akt/mTOR pathway signaling in PI3Kalpha mutant expressing human MCF7.1 cells xenografted nu/nu mouse assessed as inhibition of Pras40 Thr246 phosphorylation at 10 mg/kg, po qd for 21 days measured 1 hr after last administered dose on day 21 by ELISA; assay type: functional
Mus musculus [10] = assay: Inhibition of PI3K/Akt/mTOR pathway signaling in PI3Kalpha mutant expressing human MCF7.1 cells xenografted nu/nu mouse assessed as inhibition of Pras40 Thr246 phosphorylation at 10 mg/kg, po qd for 21 days measured 4 hrs after last administered dose on day 21 by ELISA; assay type: functional
PC-3 [11] = assay: Antitumor activity against human PC3 cells xenografted in nu/nu mouse assessed as reduction of tumor volume at 10 mg/kg, po qd for 14 days; assay type: functional; set-up: scale not given: the % may be the effect or the level left
Mus musculus [12] = assay: Toxicity in human PC3 cells xenografted nu/nu mouse assessed as body weight loss at 1 mg/kg, po qd for 14 days; assay type: organism-based, PC-3; set-up: dose 1 mg/kg, route oral; details: in vivo, 336 h
Mus musculus [13] = assay: Toxicity in human PC3 cells xenografted nu/nu mouse assessed as body weight loss at 10 mg/kg, po qd for 14 days; assay type: organism-based, PC-3; set-up: dose 10 mg/kg, route oral; details: in vivo, 336 h
[14] = Antitumor activity against human MCF7.1 cells expressing PI3Kalpha mutant xenografted in nu/nu mouse assessed as inhibition of tumor growth at 10 mg/kg, po qd for 21 days; assay type: functional; details: MCF7.1, 504 h, read-out: TGI
Mus musculus [15] = assay: Toxicity in human MCF7.1 cells expressing PI3Kalpha mutant xenografted nu/nu mouse assessed as body weight loss at 10 mg/kg, po qd for 21 days; assay type: organism-based; set-up: dose 10 mg/kg, route oral; details: in vivo, 504 h
Mus musculus [16] = assay: Inhibition of PI3K/Akt/mTOR pathway signaling in PI3Kalpha mutant expressing human MCF7.1 cells xenografted nu/nu mouse assessed as inhibition of S6RP Ser235/236 phosphorylation at 10 mg/kg, po qd for 21 days measured 1 hr after last administered dose on day 21 by electrochemiluminescence assay; assay type: functional
Mus musculus [17] = assay: Inhibition of PI3K/Akt/mTOR pathway signaling in PI3Kalpha mutant expressing human MCF7.1 cells xenografted nu/nu mouse assessed as inhibition of S6RP Ser235/236 phosphorylation at 10 mg/kg, po qd for 21 days measured 4 hrs after last administered dose on day 21 by electrochemiluminescence assay; assay type: functional
[18] = Oral bioavailability in Beagle dog at 2 mg/kg, po; assay type: ADME, organism-based, Canis lupus familiaris; details: in vivo
[19] = Protein binding in Beagle dog plasma; assay type: ADME, cell-free, Canis lupus familiaris; details: read-out: PPB (converted)
[20] = Volume of distribution at steady state in Sprague-Dawley rat at 1 mg/kg, iv; assay type: ADME, organism-based; set-up: dose 1 mg/kg, route intravenous; details: in vivo, read-out: Vdss
[21] = Half life in nu/nu mouse at 5 mg/kg, po; assay type: ADME, organism-based; set-up: dose 5 mg/kg, route oral; details: in vivo
Aurora kinase A = target: T1, Aurora kinase A (Homo sapiens, UniProt O14965); assay: Inhibition of Aurora A kinase
T1 sequence (O14965 whole entry): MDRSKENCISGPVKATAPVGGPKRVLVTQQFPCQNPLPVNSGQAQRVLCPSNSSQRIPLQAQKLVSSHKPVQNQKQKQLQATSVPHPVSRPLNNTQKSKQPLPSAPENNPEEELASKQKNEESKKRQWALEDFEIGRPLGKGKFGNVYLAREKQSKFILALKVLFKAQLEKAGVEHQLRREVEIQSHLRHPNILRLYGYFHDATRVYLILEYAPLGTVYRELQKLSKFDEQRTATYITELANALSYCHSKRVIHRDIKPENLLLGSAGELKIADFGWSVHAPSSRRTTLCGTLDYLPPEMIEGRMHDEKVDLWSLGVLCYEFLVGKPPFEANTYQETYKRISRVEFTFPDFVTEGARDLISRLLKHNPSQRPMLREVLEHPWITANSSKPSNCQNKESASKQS

[22] = target: Mitogen-activated protein kinase kinase kinase 9 (Homo sapiens, UniProt P80192); assay: Inhibition of MLK1
Chain of Mitogen-activated protein kinase kinase kinase 9 (P80192 whole entry): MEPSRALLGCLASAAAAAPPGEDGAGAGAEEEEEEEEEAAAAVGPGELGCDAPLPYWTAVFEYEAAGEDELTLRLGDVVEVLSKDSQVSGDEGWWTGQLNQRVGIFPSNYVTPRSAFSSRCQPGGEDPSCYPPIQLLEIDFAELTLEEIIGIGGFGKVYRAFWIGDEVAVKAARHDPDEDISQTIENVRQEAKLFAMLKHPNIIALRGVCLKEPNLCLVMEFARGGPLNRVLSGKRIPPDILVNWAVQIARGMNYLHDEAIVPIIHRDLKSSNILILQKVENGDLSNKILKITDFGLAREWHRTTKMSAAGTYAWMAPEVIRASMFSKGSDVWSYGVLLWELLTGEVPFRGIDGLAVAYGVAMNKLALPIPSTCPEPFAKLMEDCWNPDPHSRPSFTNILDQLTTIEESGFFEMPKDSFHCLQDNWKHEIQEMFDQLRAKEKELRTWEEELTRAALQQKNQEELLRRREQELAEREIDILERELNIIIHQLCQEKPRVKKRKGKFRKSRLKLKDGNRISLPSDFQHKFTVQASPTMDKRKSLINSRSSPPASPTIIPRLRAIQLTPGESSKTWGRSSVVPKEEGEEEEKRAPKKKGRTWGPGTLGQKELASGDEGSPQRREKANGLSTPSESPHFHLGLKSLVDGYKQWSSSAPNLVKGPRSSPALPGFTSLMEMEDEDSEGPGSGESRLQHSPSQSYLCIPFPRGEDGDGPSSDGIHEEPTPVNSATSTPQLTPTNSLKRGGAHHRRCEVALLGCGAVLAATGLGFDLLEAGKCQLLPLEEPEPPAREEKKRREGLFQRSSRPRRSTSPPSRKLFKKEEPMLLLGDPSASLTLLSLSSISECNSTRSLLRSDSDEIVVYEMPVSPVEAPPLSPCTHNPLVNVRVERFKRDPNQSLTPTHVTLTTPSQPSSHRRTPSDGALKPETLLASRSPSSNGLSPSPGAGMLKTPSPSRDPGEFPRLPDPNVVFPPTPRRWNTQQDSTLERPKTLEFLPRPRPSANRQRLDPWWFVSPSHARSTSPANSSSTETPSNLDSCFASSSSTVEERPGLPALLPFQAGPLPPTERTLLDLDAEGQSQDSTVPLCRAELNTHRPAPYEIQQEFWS

[23] = target: Tyrosine-protein kinase SYK (Homo sapiens, UniProt P43405); assay: Inhibition of SYK
PC-3 [24] = assay: Antiproliferative activity against human PC3 cells deficient in PTEN in after 3 to 4 days; assay type: functional, cell-based
[25] = Clearance in Sprague-Dawley rat at 1 mg/kg, iv; assay type: ADME, organism-based; set-up: dose 1 mg/kg, route intravenous; details: in vivo
[26] = Oral bioavailability in Sprague-Dawley rat at 2 mg/kg; assay type: ADME, organism-based; details: in vivo
[27] = Clearance in Sprague-Dawley rat liver microsomes; assay type: ADME, Microsome
[28] = Clearance in nu/nu mouse at 1 mg/kg, iv; assay type: ADME, organism-based; set-up: dose 1 mg/kg, route intravenous; details: in vivo
[29] = Clearance in cynomolgus monkey at 1 mg/kg, iv; assay type: ADME, organism-based, Macaca fascicularis; set-up: dose 1 mg/kg, route intravenous; details: in vivo
[30] = Clearance in Beagle dog at 1 mg/kg, iv; assay type: ADME, organism-based, Canis lupus familiaris; set-up: dose 1 mg/kg, route intravenous; details: in vivo
[31] = Volume of distribution at steady state in nu/nu mouse at 1 mg/kg, iv; assay type: ADME, organism-based; set-up: dose 1 mg/kg, route intravenous; details: in vivo, read-out: Vdss
[32] = Volume of distribution at steady state in cynomolgus monkey at 1 mg/kg, iv; assay type: ADME, organism-based, Macaca fascicularis; set-up: dose 1 mg/kg, route intravenous; details: in vivo, read-out: Vdss
[33] = Volume of distribution at steady state in Beagle dog at 1 mg/kg, iv; assay type: ADME, organism-based, Canis lupus familiaris; set-up: dose 1 mg/kg, route intravenous; details: in vivo, read-out: Vdss
[34] = Cmax in nu/nu mouse at 5 mg/kg, po; assay type: ADME, organism-based; set-up: dose 5 mg/kg, route oral; details: in vivo
[35] = AUC in nu/nu mouse at 5 mg/kg, po; assay type: ADME, organism-based; set-up: dose 5 mg/kg, route oral; details: plasma
[36] = Oral bioavailability in nu/nu mouse at 5 mg/kg, po; assay type: ADME, organism-based; details: in vivo
[37] = Protein binding in mouse plasma; assay type: ADME, cell-free; details: read-out: PPB (converted)
[38] = Cmax in Sprague-Dawley rat at 5 mg/kg, po; assay type: ADME, organism-based; set-up: dose 5 mg/kg, route oral; details: in vivo
[39] = AUC in Sprague-Dawley rat at 5 mg/kg, po; assay type: ADME, organism-based; set-up: dose 5 mg/kg, route oral; details: plasma
[40] = Oral bioavailability in Sprague-Dawley rat at 5 mg/kg, po; assay type: ADME, organism-based; details: in vivo
[41] = Protein binding in rat plasma; assay type: ADME, cell-free; details: read-out: PPB (converted)
[42] = Cmax in cynomolgus monkey at 2 mg/kg, po; assay type: ADME, organism-based, Macaca fascicularis; set-up: dose 2 mg/kg, route oral; details: in vivo
[43] = AUC in cynomolgus monkey at 2 mg/kg, po; assay type: ADME, organism-based, Macaca fascicularis; set-up: dose 2 mg/kg, route oral; details: plasma
[44] = Oral bioavailability in cynomolgus monkey at 2 mg/kg, po; assay type: ADME, organism-based, Macaca fascicularis; details: in vivo
[45] = Protein binding in cynomolgus monkey plasma; assay type: ADME, cell-free, Macaca fascicularis; details: read-out: PPB (converted)
[46] = Cmax in Beagle dog at 2 mg/kg, po; assay type: ADME, organism-based, Canis lupus familiaris; set-up: dose 2 mg/kg, route oral; details: in vivo
[47] = AUC in Beagle dog at 2 mg/kg, po; assay type: ADME, organism-based, Canis lupus familiaris; set-up: dose 2 mg/kg, route oral; details: plasma
[48] = target: Serine/threonine-protein kinase mTOR (Homo sapiens, UniProt P42345)

inhibition [1]: 65%
inhibition [2]: 78%
inhibition [3]: inactive
inhibition [4]: inactive
bioavailability [18]: 100%
fraction unbound [19]: 0.27
Vd [20]: 2.8 L/kg
half-life [21]: 3.6 h
IC50 (Aurora kinase A): > 10000 nM
IC50 [22]: 591 nM
IC50 [23]: 371 nM
IC50 (PC-3 [24]): 330 nM
clearance [25]: 9 mL/min/kg
bioavailability [26]: 83%
CLint scaled [27]: 23 mL/min/kg
clearance [28]: 17 mL/min/kg
clearance [29]: 15 mL/min/kg
clearance [30]: 1.6 mL/min/kg
Vd [31]: 2.8 L/kg
Vd [32]: 3 L/kg
Vd [33]: 1.6 L/kg
Cmax [34]: 2100 nM
AUC [35]: 14 µM·h
bioavailability [36]: 100%
fraction unbound [37]: 0.36
Cmax [38]: 2200 nM
AUC [39]: 21 µM·h
bioavailability [40]: 83%
fraction unbound [41]: 0.51
Cmax [42]: 1100 nM
AUC [43]: 3.8 µM·h
bioavailability [44]: 62%
fraction unbound [45]: 0.21
Cmax [46]: 4400 nM
AUC [47]: 63 µM·h
IC50 [48]: 30 nM
Compound: CC(C)(O)c1cc2nc(-c3cnc(N)nc3)nc(N3CCOCC3)c2s1
inhibition in vivo at 10 mg/kg (PC-3 [5]): 89%
Activity (PC-3 [6]): inactive
inhibition in vivo at 10 mg/kg (Mus musculus [7]): 80%
inhibition in vivo at 10 mg/kg (Mus musculus [8]): 73%
inhibition in vivo at 10 mg/kg (Mus musculus [9]): 98%
inhibition in vivo at 10 mg/kg (Mus musculus [10]): 88%
Activity (PC-3 [11]): 89%
Activity (Mus musculus [12]): Non-toxic
Activity (Mus musculus [13]): Non-toxic
inhibition in vivo at 10 mg/kg [14]: 73%
Activity (Mus musculus [15]): Non-toxic
inhibition in vivo at 10 mg/kg (Mus musculus [16]): 81%
inhibition in vivo at 10 mg/kg (Mus musculus [17]): 75%
